# Test results reported in PMC8048867 (Chemmedchem, 2020).
# Experiments:
# [1] = molecular target: MMP9 (Homo sapiens, UniProt P14780); assay: off-target proteinase inhibition MMP9; format: biochemical; conditions: read-out: Relative enzyme activity MMP9
# [2] = molecular target: T1, MMP2 (Homo sapiens, UniProt P08253); assay: off-target proteinase inhibition MMP2; format: biochemical; conditions: read-out: Relative enzyme activity MMP2
# T1 sequence (P08253 110-660): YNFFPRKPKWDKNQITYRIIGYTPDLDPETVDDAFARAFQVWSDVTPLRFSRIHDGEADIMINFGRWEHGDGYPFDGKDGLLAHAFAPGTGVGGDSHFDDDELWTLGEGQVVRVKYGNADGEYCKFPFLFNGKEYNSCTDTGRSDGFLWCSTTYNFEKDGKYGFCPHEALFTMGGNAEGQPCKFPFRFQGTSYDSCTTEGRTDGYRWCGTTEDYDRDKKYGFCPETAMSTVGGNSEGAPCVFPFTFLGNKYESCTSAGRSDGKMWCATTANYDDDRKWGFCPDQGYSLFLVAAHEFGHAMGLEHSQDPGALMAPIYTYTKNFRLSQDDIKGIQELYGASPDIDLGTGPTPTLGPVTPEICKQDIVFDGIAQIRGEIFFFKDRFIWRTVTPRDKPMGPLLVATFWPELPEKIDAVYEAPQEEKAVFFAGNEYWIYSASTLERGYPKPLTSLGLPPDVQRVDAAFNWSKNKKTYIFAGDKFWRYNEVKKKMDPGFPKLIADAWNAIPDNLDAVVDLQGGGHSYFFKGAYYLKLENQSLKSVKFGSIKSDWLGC
# [3] = molecular target: T2, ADAM10 (Homo sapiens, UniProt O14672); assay: off-target proteinase inhibition ADAM10; format: biochemical; conditions: read-out: Relative enzyme activity ADAM10
# T2 sequence (O14672 214-748): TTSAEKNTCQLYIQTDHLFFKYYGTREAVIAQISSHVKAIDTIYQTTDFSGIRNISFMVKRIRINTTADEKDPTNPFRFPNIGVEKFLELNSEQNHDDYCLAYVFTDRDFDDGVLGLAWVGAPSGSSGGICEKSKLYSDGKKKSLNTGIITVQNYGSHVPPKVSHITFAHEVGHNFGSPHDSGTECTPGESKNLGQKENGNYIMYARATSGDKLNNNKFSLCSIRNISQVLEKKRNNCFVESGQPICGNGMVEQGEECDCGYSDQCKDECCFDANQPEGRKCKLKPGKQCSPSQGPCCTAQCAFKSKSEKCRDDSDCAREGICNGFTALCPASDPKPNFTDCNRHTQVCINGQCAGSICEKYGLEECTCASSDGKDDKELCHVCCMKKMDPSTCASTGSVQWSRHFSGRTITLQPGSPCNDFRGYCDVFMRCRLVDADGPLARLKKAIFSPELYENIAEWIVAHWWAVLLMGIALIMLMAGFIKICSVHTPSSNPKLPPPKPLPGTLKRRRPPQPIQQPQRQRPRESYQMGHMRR
# [4] = molecular target: T3, recombinant human meprin α (Homo sapiens, UniProt Q16819); assay: meprin α inhibition, quenched fluorogenic peptide substrate assay; format: biochemical; conditions: for SF: selectivity factor (K i app meprin β/K i app meprin α): meprin α over meprin β
# T3 sequence (Q16819 66-746): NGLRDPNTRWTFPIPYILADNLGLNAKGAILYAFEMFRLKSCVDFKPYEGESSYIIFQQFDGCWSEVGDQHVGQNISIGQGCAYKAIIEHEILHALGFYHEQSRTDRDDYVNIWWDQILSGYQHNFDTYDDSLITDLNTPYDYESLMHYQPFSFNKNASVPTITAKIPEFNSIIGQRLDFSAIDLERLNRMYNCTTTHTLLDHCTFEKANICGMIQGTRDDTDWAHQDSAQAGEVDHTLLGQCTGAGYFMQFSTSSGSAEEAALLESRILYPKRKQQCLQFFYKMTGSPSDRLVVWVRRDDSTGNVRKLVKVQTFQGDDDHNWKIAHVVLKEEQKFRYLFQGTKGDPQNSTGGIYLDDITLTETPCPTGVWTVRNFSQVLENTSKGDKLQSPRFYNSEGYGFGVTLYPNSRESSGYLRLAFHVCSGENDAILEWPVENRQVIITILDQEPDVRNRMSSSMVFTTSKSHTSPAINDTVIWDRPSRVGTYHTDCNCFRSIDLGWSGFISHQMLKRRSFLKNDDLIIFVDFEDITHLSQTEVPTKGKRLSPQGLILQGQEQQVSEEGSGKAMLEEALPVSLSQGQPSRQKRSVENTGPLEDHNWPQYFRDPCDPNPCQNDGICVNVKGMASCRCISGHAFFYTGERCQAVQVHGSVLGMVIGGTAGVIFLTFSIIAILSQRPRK
# [5] = molecular target: T4, recombinant human meprin β (Homo sapiens, UniProt Q16820); assay: meprin β inhibition, quenched fluorogenic peptide substrate assay; format: biochemical
# T4 sequence (Q16820 62-701): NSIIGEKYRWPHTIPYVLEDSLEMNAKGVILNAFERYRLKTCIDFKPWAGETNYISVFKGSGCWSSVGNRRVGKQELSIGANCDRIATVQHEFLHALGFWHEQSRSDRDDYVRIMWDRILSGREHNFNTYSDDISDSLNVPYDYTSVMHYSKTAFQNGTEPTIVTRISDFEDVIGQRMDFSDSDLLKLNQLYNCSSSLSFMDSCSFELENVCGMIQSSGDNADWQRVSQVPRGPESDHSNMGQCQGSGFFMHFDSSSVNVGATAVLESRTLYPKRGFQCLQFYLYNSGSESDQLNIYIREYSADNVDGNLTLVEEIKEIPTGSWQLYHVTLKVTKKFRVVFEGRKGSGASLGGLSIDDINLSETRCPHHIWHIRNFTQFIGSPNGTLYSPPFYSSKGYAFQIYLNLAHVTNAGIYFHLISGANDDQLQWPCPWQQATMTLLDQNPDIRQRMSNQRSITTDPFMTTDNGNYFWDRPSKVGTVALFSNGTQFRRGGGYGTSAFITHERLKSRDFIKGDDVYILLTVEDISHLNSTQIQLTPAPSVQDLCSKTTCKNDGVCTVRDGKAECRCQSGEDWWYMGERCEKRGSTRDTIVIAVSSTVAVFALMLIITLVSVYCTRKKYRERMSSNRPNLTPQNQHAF
# [6] = molecular target: MMP13 (Homo sapiens, UniProt P45452); assay: off-target proteinase inhibition MMP13; format: biochemical; conditions: read-out: Relative enzyme activity MMP13
# [7] = molecular target: ADAM17 (Homo sapiens, UniProt P78536); assay: off-target proteinase inhibition ADAM17; format: biochemical; conditions: read-out: Relative enzyme activity ADAM17
# Sequence of ADAM17 (P78536 215-824): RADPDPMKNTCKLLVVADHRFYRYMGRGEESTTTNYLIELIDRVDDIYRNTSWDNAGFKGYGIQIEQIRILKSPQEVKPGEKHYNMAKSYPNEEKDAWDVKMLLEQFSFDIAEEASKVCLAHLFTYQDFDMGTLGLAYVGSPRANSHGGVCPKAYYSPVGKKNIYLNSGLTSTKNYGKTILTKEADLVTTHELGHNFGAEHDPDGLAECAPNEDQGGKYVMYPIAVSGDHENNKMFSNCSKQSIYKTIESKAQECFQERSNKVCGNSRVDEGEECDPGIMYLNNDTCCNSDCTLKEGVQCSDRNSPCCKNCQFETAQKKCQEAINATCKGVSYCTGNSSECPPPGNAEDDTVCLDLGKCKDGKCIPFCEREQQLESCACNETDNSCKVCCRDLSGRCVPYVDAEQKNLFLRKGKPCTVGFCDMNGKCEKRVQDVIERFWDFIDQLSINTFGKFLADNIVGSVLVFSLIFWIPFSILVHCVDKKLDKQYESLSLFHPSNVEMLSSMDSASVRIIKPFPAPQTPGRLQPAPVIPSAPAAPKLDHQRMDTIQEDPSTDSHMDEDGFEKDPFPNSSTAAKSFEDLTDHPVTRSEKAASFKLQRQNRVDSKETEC
# [8] = molecular target: T5, mouse ovastacin (Mus musculus, UniProt Q6HA09); assay: ovastacin inhibition, fluorogenic enzyme activity assay
# T5 sequence (Q6HA09 86-435 limits assumed): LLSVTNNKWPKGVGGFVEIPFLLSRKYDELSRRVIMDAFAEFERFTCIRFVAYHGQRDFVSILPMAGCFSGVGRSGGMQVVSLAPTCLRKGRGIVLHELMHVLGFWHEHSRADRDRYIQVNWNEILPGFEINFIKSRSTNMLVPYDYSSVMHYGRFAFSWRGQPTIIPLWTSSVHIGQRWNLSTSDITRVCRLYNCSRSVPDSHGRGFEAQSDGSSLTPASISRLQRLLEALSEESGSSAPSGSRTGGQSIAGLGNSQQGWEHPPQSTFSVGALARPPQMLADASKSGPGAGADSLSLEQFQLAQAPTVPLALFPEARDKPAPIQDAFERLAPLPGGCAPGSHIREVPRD
# Sequence of MMP9 (P14780 107-707 limits assumed): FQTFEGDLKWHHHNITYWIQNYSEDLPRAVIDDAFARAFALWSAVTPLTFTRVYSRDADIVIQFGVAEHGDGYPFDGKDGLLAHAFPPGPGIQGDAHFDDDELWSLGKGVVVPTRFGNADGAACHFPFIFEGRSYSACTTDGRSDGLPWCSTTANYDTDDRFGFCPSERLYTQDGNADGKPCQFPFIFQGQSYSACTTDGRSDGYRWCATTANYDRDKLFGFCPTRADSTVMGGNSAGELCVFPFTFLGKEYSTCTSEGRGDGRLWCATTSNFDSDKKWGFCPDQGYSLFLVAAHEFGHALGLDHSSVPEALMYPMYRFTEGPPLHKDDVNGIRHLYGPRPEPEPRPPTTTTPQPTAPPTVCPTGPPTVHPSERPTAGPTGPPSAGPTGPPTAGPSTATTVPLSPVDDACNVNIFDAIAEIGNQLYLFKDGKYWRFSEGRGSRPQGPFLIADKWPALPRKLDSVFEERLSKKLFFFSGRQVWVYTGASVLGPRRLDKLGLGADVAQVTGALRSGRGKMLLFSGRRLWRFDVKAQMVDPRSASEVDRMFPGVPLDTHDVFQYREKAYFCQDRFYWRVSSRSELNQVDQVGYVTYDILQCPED
SMILES,Ki [4],SF: selectivity factor (K i app meprin β/K i app meprin α) [4],Ki [5],Ki [8],SF Meprin α: selectivity factor (K i app ovastacin/K i app meprin α) [8],SF Meprin β: selectivity factor (K i app ovastacin/K i app meprin β) [8],also measured
"O=C(CCn1c(-c2ccccc2)ccc1-c1ccccc1)NO [2 b, 3‐(2,5‐Diphenylpyrrol‐1‐yl)propanehydroxamic acid]",736 nM,20,15000 nM,–,–,–,–
"O=C(Cc1c(-c2ccccc2)n[nH]c1-c1ccccc1)NO [2 e, 2‐(3,5‐Diphenyl‐1H‐pyrazol‐4‐yl)ethanehydroxamic acid]",3 nM,66,199 nM,196 nM,65,1,remaining activity at 10 µM [1]: 81%; remaining activity at 200 µM [1]: 27%; remaining activity at 10 µM [2]: 104%; remaining activity at 200 µM [2]: 61%; remaining activity at 10 µM [3]: 73%; remaining activity at 200 µM [3]: 23%; remaining activity at 10 µM [6]: 75%; remaining activity at 200 µM [6]: 67%; remaining activity at 10 µM [7]: 61%; remaining activity at 200 µM [7]: 7%
"O=C(Cc1c(-c2ccccc2)ncn1-c1ccccc1)NO [2 i, 2‐(3,5‐Diphenylimidazol‐4‐yl)ethanehydroxamic acid]",2 nM,222,443 nM,–,–,–,–
"O=C(Cc1c(-c2ccccc2)nnn1-c1ccccc1)NO [2 j, 2‐(3,5‐Diphenyl‐1,2,3‐triazol‐4‐yl)ethanehydroxamic acid]",9 nM,161,1450 nM,–,–,–,–
"O=C(Cn1nc(-c2ccccc2)cc1-c1ccccc1)NO [3 a, 2‐(3,5‐Diphenylpyrazol‐1‐yl)ethanehydroxamic acid]",256 nM,41,10400 nM,1050 nM,4,0.1,–
"O=C(CCn1nc(-c2ccccc2)cc1-c1ccccc1)NO [3 b, 3‐(3,5‐Diphenylpyrazol‐1‐yl)propanehydroxamic acid]",406 nM,38,15400 nM,1100 nM,3,0.1,–
"O=C(Cc1c(-c2ccccc2)[nH]c2ccccc12)NO [4 e, 2‐(2‐Phenyl‐1H‐indol‐3‐yl)ethanehydroxamic acid]",82 nM,14,1180 nM,–,–,–,–
"O=C(Cc1c2ccccc2nn1-c1ccccc1)NO [4 h, 2‐(2‐Phenylindazol‐3‐yl)ethanehydroxamic acid]",273 nM,12,3360 nM,–,–,–,–
"CCCCC[C@H](CC(=O)NO)C(=O)N[C@H](C(=O)N1CCC[C@H]1CO)C(C)C [Actinonin, reference compound]",8 nM,27,219 nM,–,–,–,–

# Now from value to compound, other results behind:
Ki [4],SF: selectivity factor (K i app meprin β/K i app meprin α) [4],Ki [5],Ki [8],SF Meprin α: selectivity factor (K i app ovastacin/K i app meprin α) [8],SF Meprin β: selectivity factor (K i app ovastacin/K i app meprin β) [8],SMILES,also measured
20 nM,216,4310 nM,–,–,–,"O=C(Cn1c(-c2ccccc2)ccc1-c1ccccc1)NO [2 a, 2‐(2,5‐Diphenylpyrrol‐1‐yl)ethanehydroxamic acid]",remaining activity at 10 µM [1]: 92%; remaining activity at 200 µM [1]: 1%; remaining activity at 10 µM [2]: 83%; remaining activity at 200 µM [2]: 1%; remaining activity at 10 µM [3]: 82%; remaining activity at 200 µM [3]: 29%; fold improvement in potency against meprin α compared to amine 1 d ([4]; compared to 1 d): ~400 fold; remaining activity at 10 µM [6]: 79%; remaining activity at 200 µM [6]: 5%; remaining activity at 10 µM [7]: 82%; remaining activity at 200 µM [7]: 25%
306 nM,138,42300 nM,31800 nM,104,0.8,"O=C(CCn1c(-c2ccccc2)nnc1-c1ccccc1)NO [2 h, 3‐(3,5‐Diphenyl‐1,2,4‐triazol‐4‐yl)propanehydroxamic acid]",–
414 nM,41,17000 nM,1300 nM,3.1,0.1,"O=C(CCn1c(-c2ccccc2)cc2ccccc21)NO [4 b, 3‐(2‐Phenylindol‐1‐yl)propanehydroxamic acid]",–
1030 nM,27,27900 nM,9800 nM,9.5,0.4,"O=C(CCn1c(-c2ccccc2)nc2ccccc21)NO [4 d, 3‐(2‐Phenylbenzimidazol‐1‐yl)propanehydroxamic acid]",–
262 nM,17,4560 nM,–,–,–,"O=C(Cn1c(-c2ccccc2)nc2cccnc21)NO [4 f, 2‐(2‐Phenylimidazo[4,5‐b]pyridin‐3‐yl)ethanehydroxamic acid]",–
1480 nM,3,4170 nM,–,–,–,"O=C(Cn1c(-c2ccccc2)nc2ncccc21)NO [4 g, 2‐(2‐Phenylimidazo[4,5‐b]pyridin‐1‐yl)ethane‐hydroxamic acid]",–
